Reference: US20240279220A1, “INDOLE COMPOUNDS AND METHODS OF USE” (Genzyme Corporation, priority 2021, published 2024)

System: NBD1/3D
Assay: Aggregation analysis using differential static light scattering (DSLS), NBD1 thermal stability
Type: binding, Human
Conditions: ΔTagg versus DMSO control; compound at 100 μM
In short: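 Purified NBD1 at 0.2 mg/ml in S200 buffer (pH 7.6, 2 mM ATP, 5 mM MgCl2, 1% glycerol) was heated with compound at 1 °C/min to 70 °C. Tagg taken from the light-scattering curve inflection point; ΔTagg = compound Tagg minus mean DMSO control Tagg.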

O=C(O)CCc1cccc(C(O)c2cnc(-c3cccc(Oc4c(F)cc5[nH]ccc5c4-c4nccs4)c3)[nH]2)c1 (stereo not shown) [Example 87, 3-(3-((2-(3-((6-Fluoro-4-(thiazol-2-yl)-1H-indol-5-yl)oxy)phenyl)-1H-imidazol-5-yl)(hydroxy)methyl)phenyl)propanoic acid]
DSLS NBD1/3D Human Stability delta-T (° C.) @ 100 (μM): B (B: 5-10° C.)

Cc1c(Oc2ccc(F)c(-c3ncc(Cc4cccc(CCC(=O)O)c4F)[nH]3)c2)ccc2[nH]ccc12 [Example 116, 3-(2-fluoro-3-((2-(2-fluoro-5-((4-methyl-1H-indol-5-yl)oxy)phenyl)-1H-imidazol-5-yl)methyl)phenyl)propanoic acid]
DSLS NBD1/3D Human Stability delta-T (° C.) @ 100 (μM): B (B: 5-10° C.)

Cc1c(Oc2ccc(F)c(-c3nnc(Cc4cccc5c4CC(C(=O)O)C5)[nH]3)c2)c(F)cc2[nH]ccc12 (stereo not shown) [Example 244, 4-((5-(2-Fluoro-5-((6-fluoro-4-methyl-1H-indol-5-yl)oxy)phenyl)-4H-1,2,4-triazol-3-yl)methyl)-2,3-dihydro-1H-indene-2-carboxylic acid]
DSLS NBD1/3D Human Stability delta-T (° C.) @ 100 (μM): C (C: ≤5° C.)

C[S+]([O-])c1c(Oc2cccc(-c3nc(Cc4cccc(CCC(=O)O)c4)cs3)c2)c(F)cc2[nH]ccc12 (stereo not shown) [Example 36, 3-(3-((2-(3-((6-Fluoro-4-(methylsulfinyl)-1H-indol-5-yl)oxy)phenyl)thiazol-4-yl)methyl)phenyl)propanoic acid]
DSLS NBD1/3D Human Stability delta-T (° C.) @ 100 (μM): B (B: 5-10° C.)

Cc1c(Oc2cccc(-c3ccn(C(C)c4cccc(CCC(=O)O)c4)n3)c2)ccc2[nH]ccc12 (stereo not shown) [Example 2, 3-(3-(1-(3-(3-((4-methyl-1H-indol-5-yl)oxy)phenyl)-1H-pyrazol-1-yl)ethyl)phenyl)propanoic acid]
DSLS NBD1/3D Human Stability delta-T (° C.) @ 100 (μM): B (B: 5-10° C.)

Cc1c(Oc2ccc(F)c(-c3ncc(C(O)(c4cccc(CCC(=O)O)c4)C(C)C)[nH]3)c2)c(F)cc2[nH]ccc12 (stereo not shown) [Example 224, 3-(3-(1-(2-(2-fluoro-5-((6-fluoro-4-methyl-1H-indol-5-yl)oxy)phenyl)-1H-imidazol-5-yl)-1-hydroxy-2-methylpropyl)phenyl) propanoic acid]
DSLS NBD1/3D Human Stability delta-T (° C.) @ 100 (μM): B (B: 5-10° C.)

O=C(O)CCCCc1cccc(Cc2nnc(-c3cccc(Oc4ccc5[nH]ccc5c4)c3)[nH]2)c1 [Example 258, 5-(3-((5-(3-((1H-indol-5-yl)oxy)phenyl)-4H-1,2,4-triazol-3-yl)methyl)phenyl)pentanoic acid]
DSLS NBD1/3D Human Stability delta-T (° C.) @ 100 (μM): C (C: ≤5° C.)

CCCCC(O)(c1cccc(CCC(=O)O)c1)c1c[nH]c(-c2cc(Oc3c(F)cc4[nH]ccc4c3C)ccc2F)n1 (stereo not shown) [Example 226, 3-(3-(1-(2-(2-fluoro-5-((6-fluoro-4-methyl-1H-indol-5-yl)oxy)phenyl)-1H-imidazol-4-yl)-1-hydroxypentyl)phenyl) propanoic acid]
DSLS NBD1/3D Human Stability delta-T (° C.) @ 100 (μM): B (B: 5-10° C.)

[2H]C([2H])([2H])C(C#N)(c1cccc(CCC(=O)O)c1)c1cnc(-c2cc(Oc3c(F)cc4[nH]ccc4c3C)ccc2F)[nH]1 (stereo not shown) [Example 59, 3-(3-(1-cyano-1-(2-(2-fluoro-5-((6-fluoro-4-methyl-1H-indol-5-yl)oxy)phenyl)-1H-imidazol-5-yl)ethyl-2,2,2-d3)phenyl)propanoic acid]
DSLS NBD1/3D Human Stability delta-T (° C.) @ 100 (μM): B (B: 5-10° C.)

CC(O)(c1cccc(CCC(=O)O)c1)c1nnc(-c2cc(Oc3c(F)cc4[nH]ccc4c3F)ccc2F)[nH]1 (stereo not shown) [Example 250, 3-(3-(1-(5-(5-((4,6-Difluoro-1H-indol-5-yl)oxy)-2-fluorophenyl)-4H-1,2,4-triazol-3-yl)-1-hydroxyethyl)phenyl)propanoic acid]
DSLS NBD1/3D Human Stability delta-T (° C.) @ 100 (μM): B (B: 5-10° C.)

CS(=O)(=O)c1c(Oc2ccc(F)c(-c3ncc(C4(c5cccc(CCC(=O)O)c5)OCCCO4)[nH]3)c2)c(F)cc2[nH]ccc12 [Example 44, 3-(3-(2-(2-(2-Fluoro-5-((6-fluoro-4-(methylsulfonyl)-1H-indol-5-yl)oxy)phenyl)-1H-imidazol-5-yl)-1,3-dioxan-2-yl)phenyl)propanoic acid]
DSLS NBD1/3D Human Stability delta-T (° C.) @ 100 (μM): A (A: T ≥ 10° C.)

Cc1c(Oc2ccc(F)c(-c3ncc(C(C)c4cccc([C@@H]5C[C@@H]5C(=O)O)c4F)[nH]3)c2)c(F)cc2[nH]ccc12 (single isomer, unassigned) [Example 138C, cis-2-(2-fluoro-3-(1-(2-(2-fluoro-5-((6-fluoro-4-methyl-1H-indol-5-yl)oxy)phenyl)-1H-imidazol-5-yl)ethyl)phenyl)cyclopropane-1-carboxylic acid]
DSLS NBD1/3D Human Stability delta-T (° C.) @ 100 (μM): C (C: ≤5° C.)

[2H]C([2H])([2H])C(C#N)(c1cc(F)cc(CCC(=O)O)c1)c1cnc(-c2cc(Oc3c(F)c(F)c4[nH]ccc4c3C)ccc2F)[nH]1 (stereo not shown) [Example 63, 3-(3-(1-cyano-1-(2-(5-((6,7-difluoro-4-methyl-1H-indol-5-yl)oxy)-2-fluorophenyl)-1H-imidazol-5-yl)ethyl-2,2,2-d3)-5-fluorophenyl)propanoic acid]
DSLS NBD1/3D Human Stability delta-T (° C.) @ 100 (μM): B (B: 5-10° C.)

CC(O)(c1cccc(CCC(=O)O)c1)c1cnc(-c2cc(Oc3c(F)cc4[nH]ccc4c3F)ccc2F)[nH]1 (stereo not shown) [Example 187, 3-(3-(1-(2-(5-((4,6-difluoro-1H-indol-5-yl)oxy)-2-fluorophenyl)-1H-imidazol-5-yl)-1-hydroxyethyl)phenyl) propanoic acid]
DSLS NBD1/3D Human Stability delta-T (° C.) @ 100 (μM): A (A: T ≥ 10° C.)

Cc1c(Oc2ccc(F)c(-c3ncc(C(C)(C#N)c4cccc(CCC(=O)O)c4)[nH]3)c2)c(F)cc2[nH]ccc12 (stereo not shown) [Example 50, 3-(3-(1-cyano-1-(2-(2-fluoro-5-((6-fluoro-4-methyl-1H-indol-5-yl)oxy)phenyl)-1H-imidazol-5-yl)ethyl)phenyl)propanoic acid]
DSLS NBD1/3D Human Stability delta-T (° C.) @ 100 (μM): B (B: 5-10° C.)

CC(C#N)(c1cccc(CCC(=O)O)c1)c1cnc(-c2cc(Oc3c(F)c(F)c4[nH]ccc4c3C3CC3)ccc2F)[nH]1 (stereo not shown) [Example 53, 3-(3-(1-cyano-1-(2-(5-((4-cyclopropyl-6,7-difluoro-1H-indol-5-yl)oxy)-2-fluorophenyl)-1H-imidazol-5-yl)ethyl)phenyl)propanoic acid]
DSLS NBD1/3D Human Stability delta-T (° C.) @ 100 (μM): B (B: 5-10° C.)

Cc1c(Oc2ccc(F)c(-c3ncc(Cc4cc(F)cc(CCC(=O)O)c4)[nH]3)c2)c(F)cc2[nH]ccc12 [Example 108, 3-(3-fluoro-5-((2-(2-fluoro-5-((6-fluoro-4-methyl-1H-indol-5-yl)oxy)phenyl)-1H-imidazol-5-yl)methyl)phenyl)propanoic acid]
DSLS NBD1/3D Human Stability delta-T (° C.) @ 100 (μM): B (B: 5-10° C.)

CC(C#N)(c1cccc(CCC(=O)O)c1)c1c[nH]c(-c2cc(Oc3c(F)cc4[nH]ccc4c3CC(F)F)ccc2F)n1 (stereo not shown) [Example 55, 3-(3-(1-cyano-1-(2-(5-((4-(2,2-difluoroethyl)-6-fluoro-1H-indol-5-yl)oxy)-2-fluorophenyl)-1H-imidazol-4-yl)ethyl)phenyl)propanoic acid]
DSLS NBD1/3D Human Stability delta-T (° C.) @ 100 (μM): B (B: 5-10° C.)

CC(O)(c1cccc(CCC(=O)O)c1)c1csc(-c2cc(Oc3c(F)cc4[nH]ccc4c3S(C)(=O)=O)ccc2F)n1 (stereo not shown) [Example 88, 3-(3-(1-(2-(2-Fluoro-5-((6-fluoro-4-(methylsulfonyl)-1H-indol-5-yl)oxy)phenyl)thiazol-4-yl)-1-hydroxyethyl)phenyl)propanoic acid]
DSLS NBD1/3D Human Stability delta-T (° C.) @ 100 (μM): B (B: 5-10° C.)

COP(=O)(Cc1cccc(Cn2ccc(-c3cccc(Oc4ccc5[nH]ccc5c4CO)c3)n2)c1)OC [Example 12, dimethyl (3-((3-(3-((4-(hydroxymethyl)-1H-indol-5-yl)oxy)phenyl)-1H-pyrazol-1-yl)methyl)benzyl)phosphonate]
DSLS NBD1/3D Human Stability delta-T (° C.) @ 100 (μM): C (C: ≤5° C.)

CC(C)(c1cnc(-c2cc(Oc3c(F)c(F)c4[nH]ccc4c3F)ccc2F)[nH]1)c1cccc(CCC(=O)O)c1F [Example 157, 3-(2-fluoro-3-(2-(2-(2-fluoro-5-((4,6,7-trifluoro-1H-indol-5-yl)oxy)phenyl)-1H-imidazol-5-yl)propan-2-yl)phenyl)propanoic acid]
DSLS NBD1/3D Human Stability delta-T (° C.) @ 100 (μM): B (B: 5-10° C.)

CC(O)(c1cccc([C@@H]2C[C@H]2C(=O)O)c1)c1c[nH]c(-c2cccc(Oc3c(F)cc4[nH]ccc4c3F)c2)n1 (mixture of isomers) [Example 184, rac-(1r,2r)-2-(3-(1-(2-(3-((4,6-Difluoro-1H-indol-5-yl)oxy)phenyl)-1H-imidazol-4-yl)-1-hydroxyethyl)phenyl)cyclopropane-1-carboxylic acid]
DSLS NBD1/3D Human Stability delta-T (° C.) @ 100 (μM): B (B: 5-10° C.)

CC(C#N)(c1cccc(CCC(=O)O)c1)c1cnc(-c2cc(Oc3c(F)c(F)c4[nH]ccc4c3S(C)(=O)=O)ccc2F)[nH]1 (stereo not shown) [Example 49, 3-(3-(1-Cyano-1-(2-(5-((6,7-difluoro-4-(methylsulfonyl)-1H-indol-5-yl)oxy)-2-fluorophenyl)-1H-imidazol-5-yl)ethyl)phenyl)propanoic acid]
DSLS NBD1/3D Human Stability delta-T (° C.) @ 100 (μM): A (A: T ≥ 10° C.)

COC(=O)CCc1cccc(C(C)(O)c2cnc(-c3cccc(Oc4ccc5[nH]ccc5c4CNC(C)=O)c3)[nH]2)c1 (stereo not shown) [Example 264, Methyl 3-(3-(1-(2-(3-((4-(acetamidomethyl)-1H-indol-5-yl)oxy)phenyl)-1H-imidazol-5-yl)-1-hydroxyethyl)phenyl)propanoate]
DSLS NBD1/3D Human Stability delta-T (° C.) @ 100 (μM): A (A: T ≥ 10° C.)

[2H]c1c[nH]c2c(F)c(F)c(Oc3ccc(F)c(-c4nc(C(C#N)(c5cc(F)cc(CCC(=O)O)c5)C([2H])([2H])[2H])c[nH]4)c3)c(F)c12 (single isomer, unassigned) [Example 67A, 3-(3-(1-cyano-1-(2-(2-fluoro-5-((4,6,7-trifluoro-1H-indol-5-yl-3-d)oxy)phenyl)-1H-imidazol-4-yl)ethyl-2,2,2-d3)-5-fluorophenyl)propanoic acid]
DSLS NBD1/3D Human Stability delta-T (° C.) @ 100 (μM): B (B: 5-10° C.)
